# Results from ChEMBL document CHEMBL1123332, “Synthesis and anti-herpes-virus activity of acyclic 2'-deoxyguanosine analogues related to 9-[(1,3-dihydroxy-2-propoxy)methyl]guanine” (1986).
# Test system: Mus musculus
# Experiment: Mean survival time of HSV-2 encephalitis infectuous mice upon subcutaneous treatment with the compound at a dose of 20 mg/kg
# Type: functional
# Conditions: not given
row,SMILES,MST
1,Nc1nc2c(ncn2COC(CO)CO)c(=O)[nH]1 [GANCICLOVIR],13.5 days
2,Nc1nc(O)c2ncn(CO[C@H](CO)CF)c2n1,8.5 days
3,Nc1nc(O)c2ncn(COCCOC(CO)CO)c2n1,10.3 days

# Test system: Mus musculus
# Experiment: Effect of subcutaneous treatment with the compound on HSV-2 encephalitis infection in mice at a dose of 20 mg/kg; 10/16
# Type: functional
# Conditions: not given
row,SMILES,Survivors
1,Nc1nc2c(ncn2COC(CO)CO)c(=O)[nH]1 [GANCICLOVIR],10

# Test system: Mus musculus
# Experiment: Effect of subcutaneous treatment with the compound on HSV-2 encephalitis infection in mice at a dose of 20 mg/kg; 2/10
# Type: functional
# Conditions: not given
row,SMILES,Survivors
1,Nc1nc(O)c2ncn(CO[C@H](CO)CF)c2n1,2

# Test system: Mus musculus
# Experiment: Effect of subcutaneous treatment with the compound on HSV-2 encephalitis infection in mice at a dose of 20 mg/kg; 3/10
# Type: functional
# Conditions: not given
row,SMILES,Survivors
1,Nc1nc(O)c2ncn(COCCOC(CO)CO)c2n1,3

# Test system: not listed separately
# Experiment: Antiviral activity determined against herpes simplex type 1 (F strain) by plaque reduction in Vero cells
# Type: functional
# Conditions: Chlorocebus sabaeus, read-out: ID50 (the source's name)
row,IC50,SMILES
1,40 µM,Nc1nc(O)c2ncn(CO[C@H](CO)COC3CCCC3)c2n1
2,> 100 µM,CC(CO)(CO)COCn1cnc2c(O)nc(N)nc21
3,60 µM,Nc1nc(O)c2ncn(CO[C@H](CO)CCl)c2n1
4,> 100 µM,Nc1nc2c(ncn2CC(CO)CO)c(=O)[nH]1 [TIVICICLOVIR]
5,70 µM,COC[C@@H](CO)OCn1cnc2c(O)nc(N)nc21
6,32 µM,NC[C@@H](CO)OCn1cnc2c(O)nc(N)nc21
7,2.3 µM,C[C@@H](CO)OCn1cnc2c(O)nc(N)nc21
8,95 µM,Nc1nc(O)c2ncn(CO[C@H](CO)CCO)c2n1
9,> 100 µM,[N-]=[N+]=NC[C@@H](CO)OCn1cnc2c(O)nc(N)nc21
10,> 100 µM,Nc1nc(O)c2ncn(CCOC(CO)CO)c2n1

row,SMILES,IC50
1,Nc1nc2c(ncn2COC(CO)CO)c(=O)[nH]1 [GANCICLOVIR],0.2 µM
2,Nc1nc2c(ncn2COCCO)c(=O)[nH]1 [ACYCLOVIR],0.5 µM
3,Nc1nc(O)c2ncn(CO[C@H](CO)CF)c2n1,> 7 µM
4,Nc1nc(O)c2ncn(COCCOC(CO)CO)c2n1,> 7 µM

# Test system: Thymidine kinase (Human alphaherpesvirus 1)
# Experiment: Phosphorylation of compound by purified HSV-1 (F strain) thymidine kinase
# Parameters: concentration or dose not given beside the values
# Conditions: not given
row,Activity,SMILES
1,21%,Nc1nc(O)c2ncn(CO[C@H](CO)COC3CCCC3)c2n1
2,100%,CC(CO)(CO)COCn1cnc2c(O)nc(N)nc21
3,33%,Nc1nc(O)c2ncn(CO[C@H](CO)CCl)c2n1
4,32%,COC[C@@H](CO)OCn1cnc2c(O)nc(N)nc21
5,< 10%,NC[C@@H](CO)OCn1cnc2c(O)nc(N)nc21
6,28%,C[C@@H](CO)OCn1cnc2c(O)nc(N)nc21
7,111%,Nc1nc(O)c2ncn(CO[C@H](CO)CCO)c2n1
8,25%,[N-]=[N+]=NC[C@@H](CO)OCn1cnc2c(O)nc(N)nc21
9,35%,Nc1nc(O)c2ncn(CCOC(CO)CO)c2n1

row,SMILES,Activity
1,Nc1nc(O)c2ncn(CO[C@H](CO)CF)c2n1,67%
2,Nc1nc(O)c2ncn(COCCOC(CO)CO)c2n1,23%
